These results are taken from patent US8222254B2, “1, 2, 4-triazole derivatives as serotonergic modulators” (Prosarix Limited, priority 2007, dated 2012).

One data set relates to α1-adrenergic receptor. In words: α1-Adrenergic Receptor Assay, [3H]Prazosin competition binding. Set-up: species or system rat. To be noted: selectivity 5HT1A over α1-adrenergic. The procedure: The determination of binding of the ligand with α1-adrenergic receptor was carried out according to the procedures described in Greengrass P and Bremner R. Eur. J. Pharmacol. 1979, 55: 323-326.
For competition binding, radiolabelled 0.25 nM [3H]Prazosin was incubated for 30 minutes at 25° C. with al transfected wisatar rat cerebral cortex cell membranes in 50 mM Tris-HCl, pH7.4, 0.1% Ascorbic acid, 10 mM Pargyline and increasing concentrations of test compound. The non specific ligand used was 0.1 uM Prazosin. Significance criteria was 50% of max stimulation or inhibition.

The target in another data set is T1, dopamine D2L receptor (Homo sapiens, UniProt P14416).
T1 construct: expressed in transfected cells; host or cells: CHO cells
T1 sequence (P14416 whole entry): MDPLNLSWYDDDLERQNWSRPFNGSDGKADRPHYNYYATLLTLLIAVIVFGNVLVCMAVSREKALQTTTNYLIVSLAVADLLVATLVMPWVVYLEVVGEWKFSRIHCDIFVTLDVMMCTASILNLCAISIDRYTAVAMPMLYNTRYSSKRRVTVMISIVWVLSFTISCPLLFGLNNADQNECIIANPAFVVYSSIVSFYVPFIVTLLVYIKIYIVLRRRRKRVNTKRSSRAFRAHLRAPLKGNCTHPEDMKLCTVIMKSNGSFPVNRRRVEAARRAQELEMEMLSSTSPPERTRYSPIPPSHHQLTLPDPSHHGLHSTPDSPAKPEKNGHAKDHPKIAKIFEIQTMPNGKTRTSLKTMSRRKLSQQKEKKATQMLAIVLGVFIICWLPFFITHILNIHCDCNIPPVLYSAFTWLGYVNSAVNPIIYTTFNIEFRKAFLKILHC
In words: Dopamine D2 Receptor Assay, [3H]Spiperone competition binding. The settings on record: selectivity 5HT1A over dopamine D2. The procedure: The determination of binding of the ligand with dopamine D2L receptor was carried out according to the procedures described in Grandy et al. Proc. Natl. Acad. Sci. 1989, 86: 9762-9766.
For competition binding, radiolabelled 0.16 nM [3H]Spiperone was incubated for 120 minutes at 25° C. with D2L transfected human recombinant CHO cells in 50 mM Tris-HCl, pH7.4, 150 mM NaCl, 1.4 mM Ascorbic acid, 0.001% BSA and increasing concentrations of test compound. The non-specific ligand used was […] haloperidol. Significance criteria was 50% of max stimulation or inhibition.

The nature of data set [1]: Metabolic stability in human liver microsomes. To be noted: pH 7.4, 1 μM compound, 0.3 mg/mL microsomes, pH7.4, 37° C. It is filed as in vitro ADME. As for the experimental part: Metabolic stability of selected compounds in human liver microsomes was assessed using the procedure described by Kuhnz and Gieschen, Drug Metab. Dispos. 1998, 26: 1120-1127. Compounds (1 μM) were measured by LC/MS following 0 and 60 minute incubations with human liver microsomes (0.3 mg/mL) at pH7.4 and 37° C.

The nature of data set [2]: Metabolic stability in rat liver microsomes. The data set is classed as in vitro ADME. To be noted: pH 7.4. Background: Microsomes from liver hold many membrane-bound enzymes, among them those of drug oxidation.
Another data set deals with T2, 5HT1A (Homo sapiens, UniProt P08908).
T2 construct: expressed in transfected cells; host or cells: CHO cells (Chinese hamster)
T2 sequence (P08908 1-422): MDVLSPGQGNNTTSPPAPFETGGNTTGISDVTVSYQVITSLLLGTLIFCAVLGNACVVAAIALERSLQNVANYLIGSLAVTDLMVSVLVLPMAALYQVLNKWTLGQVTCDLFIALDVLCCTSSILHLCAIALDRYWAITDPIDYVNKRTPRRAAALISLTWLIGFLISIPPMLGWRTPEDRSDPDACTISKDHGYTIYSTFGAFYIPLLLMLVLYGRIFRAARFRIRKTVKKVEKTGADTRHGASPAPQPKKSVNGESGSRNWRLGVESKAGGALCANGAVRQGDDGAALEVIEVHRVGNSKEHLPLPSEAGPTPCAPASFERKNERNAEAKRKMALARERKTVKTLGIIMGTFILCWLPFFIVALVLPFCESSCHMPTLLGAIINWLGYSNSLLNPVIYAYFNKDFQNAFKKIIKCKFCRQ
In words: GTPγS assay for 5HT1A agonist activity. The data set is classed as biochemical. To be noted: bound [35S]GTPγS relative to serotonin response. The procedure: Selected compounds were tested for 5HT1A agonist activity using a GTPγS assay. GTPγS binding for 5HT1A was determined according to the procedures of Adlersberg et al. J Neurosci. Res. 2000, 61(6): 674-685. Compounds were incubated for 30 minutes at 30° C. in 20 mM HEPES, pH7.4, 100 mM NaCl, 10 mM MgCl2, 1 mM DTT, 1 mM EDTA with human CHO cells Chinese hamster. Quantitation of bound [^35S] GTPγS was determined with agonist significance criteria of >50% increase in bound [^35S] GTPγS relative to serotonin response.
On the technique in general: GTPγS is a poorly hydrolysed GTP analogue; its binding reports G protein activation.

`COc1ccccc1N1CCN(C(C)Cc2nn(C)c(=O)n2CC2CCCCC2)CC1` (stereo not drawn) [Example 37, 4-(Cyclohexylmethyl)-5-{2-[4-(2-methoxyphenyl)piperazin-1-yl]propyl}-2-methyl-2,4-dihydro-3H-1,2,4-triazol-3-one]: in the data set on α1-adrenergic receptor, the “affinity for 5HT1A relative to affinity for α1-adrenergic receptors” value is on record as “more than fifty times greater”. Moreover, the “affinity for 5HT1A relative to affinity for dopamine D2 receptors” value on dopamine D2L receptor was “more than fifty times greater”.

The half-life is the time needed for the level to fall by half in the phase considered. In the case of `COc1ccccc1N1CCN(CCc2n[nH]c(=O)n2CC2CCCCC2)CC1` [Example 17, 4-(Cyclohexylmethyl)-5-{2-[4-(2-methoxyphenyl)piperazino]ethyl}-2,4-dihydro-3H-1,2,4-triazol-3-one], the half-life at 1 μM in data set [1] and in data set [2] was no less than 1 h in each case.

As to `CC(=O)Nc1cccc(N2CCN(CCCc3n[nH]c(=O)n3CC3CCCCC3)CC2)c1` [Example 39, N-(3-{4-[3-(4-Cyclohexylmethyl-5-oxo-4,5-dihydro-1H-[1,2,4]triazol-3-yl)-propyl]-piperazin-1-yl}-phenyl)-acetamide], the “affinity for 5HT1A relative to affinity for α1-adrenergic receptors” value in the data set on α1-adrenergic receptor is reported as “more than fifty times greater”.

As to `COc1ccccc1N1CCN(CCc2n[nH]c(=O)n2Cc2cccc(F)c2)CC1` [Example 26, 4-(3-Fluoro-benzyl)-5-{2-[4-(2-methoxy-phenyl)-piperazin-1-yl]-ethyl}-2,4-dihydro-[1,2,4]triazol-3-one], the half-life at 1 μM in data set [1] and in data set [2] was no less than 1 h throughout.

What is called EC50 is the concentration needed to bring the measured effect to its halfway point. Low readings indicate higher potency in that assay, high ones lower potency in that assay. For `CC(=O)Nc1cccc(N2CCN(CCc3nn(C)c(=O)n3CC3CCCCC3)CC2)c1` [Example 41, N-[3-(4-{2-[4-(Cyclohexylmethyl)-1-methyl-5-oxo-4,5-dihydro-1H-1,2,4-triazol-3-yl]ethyl}piperazino)phenyl]acetamide], the “affinity for 5HT1A relative to affinity for dopamine D2 receptors” value at dopamine D2L receptor is on record as “more than a thousand times greater”. The EC50 at 5HT1A was less than 200 nM.

`COc1ccccc1N1CCN(CCc2n[nH]c(=O)n2Cc2ccccc2)CC1` [Example 13, 4-Benzyl-5-{2-[4-(2-methoxy-phenyl)-piperazin-1-yl]-ethyl}-2,4-dihydro-[1,2,4]triazol-3-one]: the half-life at 1 μM in data set [1] and in data set [2] was no less than 1 h each time.

For `COc1ccccc1N1CCN(CCc2n[nH]c(=O)n2C(c2ccccc2)c2ccccc2)CC1` [Example 28, 4-Benzhydryl-5-{2-[4-(2-methoxy-phenyl)-piperazin-1-yl]-ethyl}-2,4-dihydro-[1,2,4]triazol-3-one], the EC50 on 5HT1A is less than 200 nM.

Molecule `COc1ccccc1N1CCN(CCc2nn(C)c(=O)n2CC2CCCCC2)CC1` [Example 42, 4-(Cyclohexylmethyl)-5-{2-[4-(2-methoxyphenyl)piperazino]ethyl}-2-methyl-2,4-dihydro-3H-1,2,4-triazol-3-one] showed an EC50 on 5HT1A of less than 200 nM.

In turn, `COc1ccccc1N1CCN(CCc2n[nH]c(=O)n2Cc2ccc(Cl)c(Cl)c2)CC1` [Example 21, 4-(3,4-Dichloro-benzyl)-5-{2-[4-(2-methoxy-phenyl)-piperazin-1-yl]-ethyl}-2,4-dihydro-[1,2,4]triazol-3-one] registered a 50% effective concentration (EC50) on 5HT1A of less than 200 nM.

In turn, `COc1ccccc1N1CCN(CCc2n[nH]c(=O)n2-c2ccc(Cl)c(Cl)c2)CC1` [Example 33, 4-(3,4-Dichloro-phenyl)-5-{2-[4-(2-methoxy-phenyl)-piperazin-1-yl]-ethyl}-2,4-dihydro-[1,2,4]triazol-3-one] came in with an EC50 at 5HT1A of less than 200 nM.

Consider `COc1ccccc1N1CCN(CCc2n[nH]c(=O)n2C2CCCCCCC2)CC1` [Example 10, 4-Cyclooctyl-5-{2-[4-(2-methoxyphenyl)piperazino]ethyl}-2,4-dihydro-3H-1,2,4-triazol-3-one], for which the EC50 at 5HT1A is less than 200 nM.

For `CC(=O)Nc1cccc(N2CCN(CCc3n[nH]c(=O)n3CC3CCCCC3)CC2)c1` [Example 38, N-[3-(4-{2-[4-(Cyclohexylmethyl)-5-oxo-4,5-dihydro-1H-1,2,4-triazol-3-yl]ethyl}piperazin-1-yl)phenyl]acetamide], the “affinity for 5HT1A relative to affinity for α1-adrenergic receptors” value with α1-adrenergic receptor is “more than fifty times greater”. Also, the “affinity for 5HT1A relative to affinity for dopamine D2 receptors” value at dopamine D2L receptor is “more than fifty times greater”.
